Source: patent US11312705B2, “Heteroaryl[4,3-C]pyrimidine-5-amine derivative, preparation method therefor, and medical uses thereof” (Jiangsu Hengrui Medicine Co., Ltd., priority 2017, dated 2022)

Assays:
Assay type in all cases: cell-based
[1] = biological target: adenosine A2b receptor (A2bR) (Homo sapiens (Human), UniProt P29275); experiment: Inhibition of adenosine A2b receptor cAMP signaling pathway (HTRF cAMP, CHO-K1/A2bR cells); details: Table 3; for IC50: CHO-K1/A2bR cells, ethyl carbazole 1 μM, cAMP HTRF; for IC50 ratio (A2bR/A2aR): selectivity A2bR over A2aR
Sequence of adenosine A2b receptor (A2bR) (P29275 whole entry): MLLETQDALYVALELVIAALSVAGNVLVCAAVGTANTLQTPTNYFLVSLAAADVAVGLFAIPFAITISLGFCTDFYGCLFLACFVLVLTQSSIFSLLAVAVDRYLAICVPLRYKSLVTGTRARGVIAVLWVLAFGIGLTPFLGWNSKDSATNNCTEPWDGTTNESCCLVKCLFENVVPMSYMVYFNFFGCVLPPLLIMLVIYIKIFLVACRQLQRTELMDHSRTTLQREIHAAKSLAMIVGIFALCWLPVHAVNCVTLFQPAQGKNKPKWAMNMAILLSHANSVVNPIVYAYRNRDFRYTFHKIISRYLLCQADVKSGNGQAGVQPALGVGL
Description: (§1) Test Example 1. Determination of the inhibition activity of the compounds of the present invention on the adenosine A2a receptor (A2aR) cAMP signaling pathway, the adenosine A2b receptor (A2bR) cAMP signaling pathway, the adenosine A1 receptor (A1R) cAMP signaling pathway and the adenosine A3 receptor (A3R) cAMP signaling pathway.
(§2) The inhibition activity of the compounds of the present invention on the adenosine A2a receptor cAMP signaling pathway, the adenosine A2b receptor cAMP signaling pathway, the adenosine A1 receptor cAMP signaling pathway and the adenosine A3 receptor cAMP signaling pathway was determined by the following method. The experimental method is briefly described as follows:
2.4 Adenosine A2b receptor (A2bR)
CHO-K1/A2bR cells were cultured in DMEM/F12 medium containing 10% fetal bovine serum and 1 mg/ml G418. The cells were digested with the cell separation buffer during the experiment. The cells were resuspended in the balanced salt buffer containing 20 mM HEPES and 0.1% bovine serum albumin and counted, and the cell density was adjusted to 10^6 cells/ml. In the 384-well plate, each well was added with 5 μl of cell suspension, and 2.5 μl of test compound (4× concentration) formulated with the balanced salt buffer containing 20 mM HEPES, 0.1% bovine serum albumin, 54 μM rolipram and 2.7 U/ml adenosine deaminase, and the plate was incubated at room temperature for 30 minutes. Each well was then added with 2.5 μl of […] (4× concentration) (Torcis, 1691/10) formulated with the balanced salt buffer containing 20 mM HEPES, 0.1% bovine serum albumin, 54 μM rolipram and 2.7 U/ml adenosine deaminase, and the plate was incubated at room temperature for 30 minutes. The final concentrations of the compounds were: 100000, 10000, 1000, 100, 10, 1, 0.1 and 0 nM. The final concentration of […] was 1 μM. Intracellular cAMP concentration was detected with the cAMP dynamic 2 kit. cAMP-d2 and Anti-cAMP-Eu-Cryptate were diluted respectively with the cAMP lysis buffer at a ratio of 1:4. Each well was added with 5 μl of diluted cAMP-d2, followed by addition of 5 μl of diluted Anti-cAMP-Eu-Cryptate, and the plate was incubated at room temperature in the dark for 1 hour. The HTRF signal values were read by the PHERAstar multi-function microplate reader.

[2] = biological target: adenosine A1 receptor (A1R) (Homo sapiens (Human), UniProt P30542); experiment: Inhibition of adenosine A1 receptor cAMP signaling pathway (HTRF cAMP, CHO-K1/A1R cells); details: Table 2; for IC50: CHO-K1/A1R cells, forskolin 10 μM, CPA 10 nM, cAMP HTRF; for IC50 ratio (A1R/A2aR): selectivity A1R over A2aR
Sequence of adenosine A1 receptor (A1R) (P30542 whole entry): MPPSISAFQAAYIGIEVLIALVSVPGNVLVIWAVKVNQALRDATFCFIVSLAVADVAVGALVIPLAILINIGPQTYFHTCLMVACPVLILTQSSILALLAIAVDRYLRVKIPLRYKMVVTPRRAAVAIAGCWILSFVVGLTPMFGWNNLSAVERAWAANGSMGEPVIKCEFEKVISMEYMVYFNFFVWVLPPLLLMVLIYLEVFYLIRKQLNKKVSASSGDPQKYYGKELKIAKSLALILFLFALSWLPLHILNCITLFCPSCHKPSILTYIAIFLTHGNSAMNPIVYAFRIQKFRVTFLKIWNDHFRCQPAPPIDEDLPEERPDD
Description: as §1, §2
2.2 Adenosine A1 receptor
(§3) CHO-K1/A1R cells were cultured in DMEM/F12 medium containing 10% fetal bovine serum and 1 mg/ml G418. The cells were digested with the cell separation buffer during the experiment. The cells were then resuspended in the balanced salt buffer containing 20 mM HEPES and 0.1% bovine serum albumin and counted, and the cell density was adjusted to 5×10^5 cells/ml. In the 384-well plate, each well was added with 12.5 μl of cell suspension, and 6.25 μl of test compound (4× concentration) formulated with the balanced salt buffer containing 20 mM HEPES, 0.1% bovine serum albumin, 54 μM rolipram and 2.7 U/ml adenosine deaminase, and the plate was incubated at room temperature for 30 minutes. Each well was then added with 6.25 μl of forskolin and N6-cyclopentyladenosine (4× concentration) formulated with the balanced salt buffer containing 20 mM HEPES, 0.1% bovine serum albumin, 54 μM rolipram and 2.7 U/ml adenosine deaminase, and the plate was incubated at room temperature for 30 minutes. The final concentrations of the compounds were: 100000, 10000, 1000, 100, 10, 1, 0.1 and 0 nM. The final concentration of forskolin was 10 μM. The final concentration of CPA was 10 nM. Intracellular cAMP concentration was detected with the cAMP dynamic 2 kit. cAMP-d2 and Anti-cAMP-Eu-Cryptate were diluted respectively with the cAMP lysis buffer at a ratio of 1:4. Each well was added with 12.5 μl of diluted cAMP-d2, followed by addition of 12.5 μl of diluted Anti-cAMP-Eu-Cryptate, and the plate was incubated at room temperature in the dark for 1 hour. The HTRF signal values were read by the PHERAstar multi-function microplate reader.

[3] = biological target: adenosine A2a receptor (A2aR) (Homo sapiens (Human), UniProt P29274); experiment: Inhibition of adenosine A2a receptor cAMP signaling pathway (HTRF cAMP, CHO-K1/A2aR cells)
Sequence of adenosine A2a receptor (A2aR) (P29274 whole entry): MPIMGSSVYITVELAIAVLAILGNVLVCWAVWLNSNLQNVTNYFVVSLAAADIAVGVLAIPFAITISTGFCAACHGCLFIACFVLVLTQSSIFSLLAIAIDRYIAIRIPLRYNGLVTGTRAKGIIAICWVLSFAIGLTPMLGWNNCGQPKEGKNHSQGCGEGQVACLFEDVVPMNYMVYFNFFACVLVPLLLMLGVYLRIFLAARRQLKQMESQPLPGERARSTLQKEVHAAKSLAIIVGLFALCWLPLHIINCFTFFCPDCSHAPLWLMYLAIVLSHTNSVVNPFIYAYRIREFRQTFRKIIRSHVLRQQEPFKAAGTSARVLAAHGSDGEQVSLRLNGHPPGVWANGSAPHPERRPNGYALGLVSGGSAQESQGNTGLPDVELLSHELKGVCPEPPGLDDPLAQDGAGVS
Description: as §1, §2
2.1 Adenosine A2a Receptor
CHO-K1/A2aR cells were cultured in DMEM/F12 medium containing 10% fetal bovine serum and 800 μg/ml bleomycin. The cells were digested with the cell separation buffer during the experiment. The cells were resuspended in the balanced salt buffer containing 20 mM HEPES and 0.1% bovine serum albumin and counted, and the cell density was adjusted to 10^6 cells/ml. In the 384-well plate, each well was added with 5 μl of cell suspension, and 2.5 μl of test compound (4× concentration) formulated with the balanced salt buffer containing 20 mM HEPES, 0.1% bovine serum albumin, 54 μM rolipram and 2.7 U/ml adenosine deaminase, and the plate was incubated at room temperature for 30 minutes. Each well was then added with 2.5 μl of […] (4× concentration) formulated with the balanced salt buffer containing 20 mM HEPES, 0.1% bovine serum albumin, 54 μM rolipram and 2.7 U/ml adenosine deaminase, and the plate was incubated at room temperature for 30 minutes. The final concentrations of the compounds were: 10000, 2000, 400, 80, 16, 3.2, 0.64, 0.128, 0.0256, 0.00512, and 0.001024 nM. The final concentration of […] was 20 nM. Intracellular cAMP concentration was detected with the cAMP dynamic 2 kit. cAMP-d2 and Anti-cAMP-Eu-Cryptate were diluted respectively with the cAMP lysis buffer at a ratio of 1:4. Each well was added with 5 μl of diluted cAMP-d2, followed by addition of 5 μl of diluted Anti-cAMP-Eu-Cryptate, and the plate was incubated at room temperature in the dark for 1 hour. The HTRF signal values were read by the PHERAstar multi-function microplate reader.

[4] = biological target: adenosine A3 receptor (A3R) (Homo sapiens (Human), UniProt P0DMS8); experiment: Inhibition of adenosine A3 receptor cAMP signaling pathway (HTRF cAMP, CHO-K1/A3R cells); details: Table 2; for IC50: CHO-K1/A3R cells, forskolin 10 μM, 2Cl-IB-MECA 5 nM, cAMP HTRF
Sequence of adenosine A3 receptor (A3R) (P0DMS8 whole entry): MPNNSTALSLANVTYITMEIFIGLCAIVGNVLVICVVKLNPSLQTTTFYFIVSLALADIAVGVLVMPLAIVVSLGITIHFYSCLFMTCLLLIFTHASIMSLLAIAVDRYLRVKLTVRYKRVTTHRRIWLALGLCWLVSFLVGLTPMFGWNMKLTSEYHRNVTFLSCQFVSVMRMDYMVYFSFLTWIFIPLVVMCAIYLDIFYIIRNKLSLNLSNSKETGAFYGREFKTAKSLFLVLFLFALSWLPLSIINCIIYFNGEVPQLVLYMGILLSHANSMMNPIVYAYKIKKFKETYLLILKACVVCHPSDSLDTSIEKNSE
Description: as §1, §2
2.3 Adenosine A3 receptor
as §3, with “CHO-K1/A3R cells were” for “CHO-K1/A1R cells were”, “serum and 10 μg/ml puromycin. The cells” for “serum and 1 mg/ml G418. The cells”, “cells were resuspended in” for “cells were then resuspended in”, “forskolin and 2Cl-IB-MECA (4× concentration)” for “forskolin and N6-cyclopentyladenosine (4× concentration)”, “concentration of 2Cl-IB-MECA was 5” for “concentration of CPA was 10”, “2Cl-IB-MECA was 5 nM. Intracellular” for “CPA was 10 nM. Intracellular”

SMILES | IC50 [1] | IC50 ratio (A2bR/A2aR) [1] | IC50 [2] | IC50 ratio (A1R/A2aR) [2] | IC50 ([3]; Table 1, ethyl carbazole 20 nM) | IC50 ([3]; Table 2, ethyl carbazole 20 nM) | IC50 ([3]; Table 3, ethyl carbazole 20 nM) | IC50 ratio (A3R/A2aR) [4] | IC50 [4]
Cc1cc(-c2c(-c3ccccc3F)nc(N)n3cnnc23)cc(CF)n1 [Example 57, 8-(2-(Fluoromethyl)-6-methylpyridin-4-yl)-7-(2-fluorophenyl)-[1,2,4]triazolo[4,3-c]pyrimidin-5-amine] | 209 nM | 81 | 302 nM | 117 | 2.59 nM | 2.59 nM | 2.59 nM | >10^3 | > 10000 nM
Cc1cc(-c2c(-c3ccc(Cl)cc3F)nc(N)n3cnnc23)cc(C(F)F)n1 [Example 59, 7-(4-Chloro-2-fluorophenyl)-8-(2-(difluoromethyl)-6-methylpyridin-4-yl)-[1,2,4]triazolo[4,3-c]pyrimidin-5-amine] | 884 nM | 290 | 1010 nM | 330 | 3.05 nM | 3.05 nM | 3.05 nM | >10^3 | > 10000 nM

These reach a lower IC50 [1]. Values come first.

IC50 [1] | IC50 ratio (A2bR/A2aR) [1] | IC50 [2] | IC50 ratio (A1R/A2aR) [2] | IC50 ([3]; Table 1, ethyl carbazole 20 nM) | IC50 ([3]; Table 2, ethyl carbazole 20 nM) | IC50 ([3]; Table 3, ethyl carbazole 20 nM) | IC50 ratio (A3R/A2aR) [4] | IC50 [4] | SMILES
112 nM | 67 | 248 nM | 148 | 1.68 nM | 1.68 nM | 1.68 nM | >10^3 | > 10000 nM | Cc1cc(-c2c(-c3ccccc3F)nc(N)n3cnnc23)cc(C(F)F)n1 [Example 56, 8-(2-(Difluoromethyl)-6-methylpyridin-4-yl)-7-(2-fluorophenyl)-[1,2,4]triazolo[4,3-c]pyrimidin-5-amine]
85.4 nM | 89 | 173 nM | 180 | 0.96 nM | 0.96 nM | 0.96 nM | >10^4 | > 10000 nM | Cc1cc(-c2c(-c3ccccc3F)nc(N)n3cnnc23)cc(C)n1 [Example 19, 8-(2,6-Dimethylpyridin-4-yl)-7-(2-fluorophenyl)-[1,2,4]triazolo[4,3-c]pyrimidin-5-amine]
78.2 nM | 75 | 222 nM | 214 | 1.04 nM | 1.04 nM | 1.04 nM | >10^3 | > 10000 nM | Cc1cc(-c2c(-c3ccc(F)cc3)nc(N)n3cnnc23)cc(CF)n1 [Example 55, 8-(2-(Fluoromethyl)-6-methylpyridin-4-yl)-7-(4-fluorophenyl)-[1,2,4]triazolo[4,3-c]pyrimidin-5-amine]
